Assays:
[1] = HPLC-analysis of stability of nucleotide-bisphosphonate conjugate in serum; format: in vitro ADME; details: mouse/human serum; Fig.3
Experimental: (§1) HPLC-analysis of hydrolytic stability of conjugate VI, Fig. 2, in buffer and in human serum was carried out under the following conditions: column Nucleosil C-18 (30-C18), 0-4% triethylammonium acetate (0.1 M, pH6.8); 20 min, flow rate -1 ml/min. […] The stability of the conjugate was decreased in mouse/human serum as it is evidenced from data on Fig.3. However, the conjugate is stable enough to be delivered to a skeleton in intact form.

[2] = HPLC-analysis of hydrolytic stability of nucleotide-bisphosphonate conjugate in buffer; format: physicochemical
Experimental: as §1

[3] = Binding of novel bisphosphonate conjugates on hydroxyapatite powder (UV spectra before/after treatment); details: pH 7.0
Experimental: To estimate the binding of NBC on hydroxyapatite (the mineral component of bone) UV spectra of NBC at pH7 were recorded before and after treatment with hydroxyapatite. […] The supernatant was separated and an absorption spectrum of the supernatant was recorded.

[4] = Biodistribution in rats of vitamin B6 - bisphosphonate conjugates in complex with 99mTc; format: in vivo; details: as complexing agent of the bone-scanning agent; general statement
Experimental: The probes were prepared with molar concentration of about 10^-3 molar at pH 6.5, with a molar ratio SnCl2 to a conjugate 1:10 and 1 m^cl/ml pertechnetate.
Male rats weighting […] were injected intravenously via the tail vein. The rats were sacrificed and dissected at selected times - 30 min., 60 min., and 120 min. The activity uptake in bone, blood, muscle, liver and spleen of each rat was measured. The results obtained indicate 40-45% of initial radioactivity injected was accumulated at bone skeleton after 60-90 min.

| SMILES | stability of the conjugate in serum [1] | hydrolytic stability (stable for several hours) ([2]; buffer solution at pH 5-7, several hours) | hydrolytic stability of the P-O-P bond ([2]; incubation either at pH >8.0 or at pH<3.0) | % of bound compound [3] | % of nonbound compound [3] | uptake in bone [4] |
| --- | --- | --- | --- | --- | --- | --- |
| CC(O)(P(=O)(O)O)P(=O)(O)OP(=O)(O)OCC1OC(n2cc(F)c(=O)[nH]c2=O)C(O)C1O (stereo not shown) [VI, Anhydride of 5-fluorouridine-5'-monophosphoric acid and 1-hydroxyethylidene-1,1-bisphosphonic acid] | decreased | more than 97% | Hydrolytic cleavage of the conjugate P-O-P bond occurred | 69,66% | 30,34% |  |
| Cc1ncc(COP(=O)(O)O)c(CNC(P(=O)(O)O)P(=O)(O)O)c1O [(iii), 1 - (N-[5 '-phospho] -pyridoxylamino)-methylene-1,1-bisphosphonic acid] |  |  |  | 100% | 0% |  |
| Cc1ncc(CO)c(CNCCC(O)(P(=O)(O)O)P(=O)(O)O)c1O [(ii), 3-(N-pyridoxylamino) -1-hydroxypropyliden-1,1-bisphosphonic acid] |  |  |  | 100% | 0% | high and rapid uptake in bone |
| O=c1[nH]c(=O)n(COCCOCCOP(=O)(O)CP(=O)(O)O)cc1F [II, Anhydride of 1-([2-{hydroxyethoxy}ethoxy]methylene)-5-fluorouracil and methylenediphosphonic acid] |  |  |  | 87,26% | 12,74% |  |
| CC(O)(P(=O)(O)O)P(=O)(O)OP(=O)(O)OCC1OC(n2ccc(=O)[nH]c2=O)C(O)C1O (stereo not shown) [VII, Anhydride of uridine-5 '-monophosphoric acid and 1-hydroxyethylidene-1,1 diphosphonic acid] |  |  |  | 88,68% | 11,32% |  |
| O=c1[nH]c(=O)n(C2OC(COP(=O)(O)OP(=O)(O)CP(=O)(O)O)C(O)C2O)cc1F (stereo not shown) [III, Anhydride of 5-fluorouridine-5'-monophosphoric acid and methylenediphosphonic acid] |  |  |  | 70,05% |  |  |
| Cc1ncc(CO)c(CNC(P(=O)(O)O)P(=O)(O)O)c1O [(iv), 1 -(N-pyridoxyl amino) -methylen-1, 1 -bisphosphonic acid] |  |  |  | 100% | 0% |  |
| Cc1ncc(COP(=O)(O)O)c(CNCCC(O)(P(=O)(O)O)P(=O)(O)O)c1O [(i), 3 - (N-[5 '-phospho] -pyridoxylamino) -1-hydroxypropyliden-1,1-bisphosphonic acid] |  |  |  | 100% | 0% |  |

— EP1383510B1, “BISPHOSPHONATE CONJUGATES AND METHODS OF MAKING AND USING THE SAME” (priority 2001, dated 2002)
